Source: patent US20050148786A1, “Diimmonium compound and use thereof” (Nippon Kayaku Kabushiki Kaisha, priority 2003, published 2005)

Tests used:
[1] = maximum absorption wavelength (λmax) in dichloromethane; format: physicochemical
Text: λmax: 1,102 nm (in dichloromethane);

[2] = thermal decomposition point (weight decrease starting point) by TG-DTA; format: physicochemical; settings: measured by TG-DTA
Experimental: the melting point: around 170° C.; and the thermal decomposition point (the weight decrease starting point): around 280° C. (measured by TG-DTA)

[3] = Comparative test of molar absorption coefficient measurement; format: physicochemical; settings: in dichloromethane; in M-1·cm-1
Text: The compounds obtained in the above-mentioned Examples were subjected to the measurement of molar absorption coefficient (ε) in dichloromethane.

[4] = Stability test of moisture-and-heat resistance of near-IR absorption filter; format: physicochemical; settings: for b* value, difference: 14-day after minus initial, 60° C. and 95% RH; for b* value, 14-day after / b* value, initial period: acrylic resin filter; for b* value, 14-day after: 14 days at 60° C. and 95% RH; for b* value, initial period: before test
Experimental: (§1) 1.2 part of each compound obtained in each Example was dissolved in 18.8 part of MEK. 80 part of a resin solution obtained by dissolving 25 part of an acrylic resin (Dianal BR-80, manufactured by Mitsubishi Rayon Co., Ltd.) in 75 part of MEK was mixed with the obtained solution to obtain a solution for coating. The solution was applied to form a film with a thickness of 2 to 4 μm on a polyester film and dried at 80° C. to obtain a near-IR absorption filter of the invention.
The obtained near-IR absorption filter was subjected to a stability test of moisture-and-heat resistance for 14 days in a constant temperature and constant humidity apparatus under 60° C. and 95% RH conditions. The filter was subjected to color measurement by a spectrophotometer before and after the test to calculate L*, a*, and b* values. If the + value of b* value is high, it means that the hue is yellowish and if b* value is close to 0, it means that the yellowish degree is low and filter is desirable and therefore, the hue evaluation and stability evaluation were done based on the b* value and its change.

[5] = Stability test of heat resistance of near-IR absorption filter; format: physicochemical; settings: for b* value, initial period / b* value, 14-day after: acrylic resin filter; for b* value, initial period: before test; for b* value, 14-day after / b* value, difference: oven at 80° C.; for b* value, 14-day after: head prints 14-day, text 21 days; for b* value, difference: after minus initial
Experimental: as §1
[…] After that, the filters were subjected to color measurement by a spectrophotometer to calculate L*, a*, and b* values and their stability was evaluated based on the change in b* values. If the b* is low, that is, the absorption in visible ray region is low, the near-IR absorption filter is preferable.

[6] = Comparative test of solubility measurement; settings: room temperature; for solubility in MEK: methyl ethyl ketone
Experimental: The solubility was measured for the compounds obtained in the above-mentioned Examples at a room temperature in methyl ethyl ketone (MEK) and toluene.

[7] = Stability test of light fastness of cyanine dye film; format: physicochemical
Experimental: 0.3 part of the cyanine dye (OM-57) was dissolved in 15 part of tetrafluoropropanol and 0.04 part of the Compound No. 3 was added to the obtained solution to produce a coating solution. The obtained coating solution was applied to a polycarbonate substrate by spin coating to form a dye film. The […] the conditions: light source output: 0.36 W/m^2; bath temperature: 24° C.; black panel temperature: 40° C.; humidity: 30% RH: by a Weatherometer (Ci4000, manufactured by Atlas Co.). After that, the remaining ratio of the cyanine dye was measured by a spectrophotometer.
For comparison, a dye film was formed and evaluated in the same manner, except that the compound described in Patent Document No. 3; hexafluoroantimonate of tetrakis[p-di(n-butyl)aminophenyl]phenylenediimmonium (Comparative Example 7: Compound No. 153); was used in place of the Compound No. 1.

[8] = Stability test of light fastness of diimmonium compound thin film; format: physicochemical
Experimental: 0.1 part of the Compound No. 3 was added to 10 part of tetrafluoropropanol to produce a coating solution. The obtained coating solution was applied to a polycarbonate substrate by spin coating to form a thin film of the diimmonium compound. The […] source output: 0.36 W/m^2; bath temperature: 24° C.; black panel temperature: 40° C.; humidity: 30% RH: by a Weatherometer (Ci4000, manufactured by Atlas Co.). After that, the remaining ratio of the diimmonium compound was measured by a spectrophotometer.
For comparison, a dye film was formed and evaluated in the same manner, except that the compound described in Patent Document No. 3; hexafluoroantimonate of tetrakis[p-di(n-butyl)aminophenyl]phenylenediimmonium (Comparative Example 8: Compound No. 153); was used in place of the Compound No. 3.

[9] = Weatherometer 0.36 W/m^2, 24° C., 30% RH, 100-hour
[10] = Weatherometer 0.36 W/m^2, 24° C., 30% RH, 150-hour

molar absorption coefficient (ε) [3] | b* value, difference [4] | b* value, 14-day after [4] | b* value, initial period [4] | b* value, initial period [5] | b* value, 14-day after [5] | b* value, difference [5] | SMILES | λmax [1] | thermal decomposition point (the weight decrease starting point) [2] | also measured
108,000 | 1.8 | 5.3 | 3.5 | 3.5 | 5.3 | 1.8 | CCCCN(CCCC)c1ccc([N+](=C2C=CC(=[N+](c3ccc(N(CCCC)CCCC)cc3)c3ccc(N(CCCC)CCCC)cc3)C=C2)c2ccc(N(CCCC)CCCC)cc2)cc1 [Compound No. 1] | 1,102 nm | around 280 °C | 
109,000 | 1.9 | 4.1 | 2.2 | 2.2 | 3.7 | 1.5 | CC(C)CN(CC(C)C)c1ccc([N+](=C2C=CC(=[N+](c3ccc(N(CC(C)C)CC(C)C)cc3)c3ccc(N(CC(C)C)CC(C)C)cc3)C=C2)c2ccc(N(CC(C)C)CC(C)C)cc2)cc1 [Compound No. 2] | 1,104 nm | around 282 °C | 
 |  |  |  |  |  |  | CCCCN(CCCC#N)c1ccc([N+](=C2C=CC(=[N+](c3ccc(N(CCCC)CCCC#N)cc3)c3ccc(N(CCCC)CCCC#N)cc3)C=C2)c2ccc(N(CCCC)CCCC#N)cc2)cc1.O=S(=O)([N-]S(=O)(=O)C(F)(F)F)C(F)(F)F.O=S(=O)([N-]S(=O)(=O)C(F)(F)F)C(F)(F)F [Compound No. 35] | 1,090 nm | around 256 °C | 
82,000 |  |  |  |  |  |  | CCCCN(CCCC)c1ccc([N+](=C2C=CC(=[N+](c3ccc(N(CCCC)CCCC)cc3)c3ccc(N(CCCC)CCCC)cc3)C=C2)c2ccc(N(CCCC)CCCC)cc2)cc1.O=S(=O)([O-])c1cccc2c(S(=O)(=O)[O-])cccc12 [Compound No. 151, 1,5-naphthalenedisulfonic acid salt of N,N,N′,N′-tetrakis[p-di(n-butyl)aminophenyl]phenylenediimmonium, reference compound] |  |  | 
24,500 |  |  |  |  |  |  | CCCCN(CCCC)c1ccc([N+](=C2C=CC(=[N+](c3ccc(N(CCCC)CCCC)cc3)c3ccc(N(CCCC)CCCC)cc3)C=C2)c2ccc(N(CCCC)CCCC)cc2)cc1.O=S(=O)([O-])c1ccc2c(S(=O)(=O)[O-])cccc2c1O [Compound No. 152, 1-hydroxy-2,5-naphthalenedisulfonic acid salt of N,N,N′,N′-tetrakis[p-di(n-butyl)aminophenyl]phenylenediimmonium, reference compound] |  |  | 
 |  |  |  | 2.5 | 4.4 | 1.9 | CCCCN(CCCC)c1ccc([N+](=C2C=CC(=[N+](c3ccc(N(CCCC)CCCC)cc3)c3ccc(N(CCCC)CCCC)cc3)C=C2)c2ccc(N(CCCC)CCCC)cc2)cc1.[F][Sb-]([F])([F])([F])([F])[F].[F][Sb-]([F])([F])([F])([F])[F] [Compound No. 153, hexafluoroantimonate of N,N,N′,N′-tetrakis[p-di(n-butyl)aminophenyl]phenylenediimmonium, reference compound] |  |  | remaining ratio of cyanine dye (%), initial period ([7]; OM-57 dye film with compound added, before irradiation): 100%; remaining ratio of cyanine dye (%), 100-hour after [7, 9]: 27%; remaining ratio of cyanine dye (%), 150-hour after [7, 10]: 0%; remaining ratio of diimmonium compound (%), 100-hour after [8, 9]: 81%; remaining ratio of diimmonium compound (%), 150-hour after [8, 10]: 76%; remaining ratio of diimmonium compound (%), initial period ([8]; thin film on polycarbonate, before irradiation): 100%; solubility in MEK [6]: 4.5%; solubility in toluene [6]: insoluble
 |  |  |  |  |  |  | N#CCCCN(CCCC#N)c1ccc([N+](=C2C=CC(=[N+](c3ccc(N(CCCC#N)CCCC#N)cc3)c3ccc(N(CCCC#N)CCCC#N)cc3)C=C2)c2ccc(N(CCCC#N)CCCC#N)cc2)cc1.[F][Sb-]([F])([F])([F])([F])[F].[F][Sb-]([F])([F])([F])([F])[F] [Compound No. 154, hexafluoroantimonate of N,N,N′,N′-tetrakis[p-di(3-cyanopropyl)aminophenyl]phenylene diimmonium, reference compound] |  |  | solubility in MEK [6]: insoluble; solubility in toluene [6]: insoluble
 | 6.1 | 9.0 | 2.9 |  |  |  | CCCCN(CCCC)c1ccc([N+](=C2C=CC(=[N+](c3ccc(N(CCCC)CCCC)cc3)c3ccc(N(CCCC)CCCC)cc3)C=C2)c2ccc(N(CCCC)CCCC)cc2)cc1.F[P-](F)(F)(F)(F)F.F[P-](F)(F)(F)(F)F [Compound No. 155, hexafluorophosphate of N,N,N′,N′-tetrakis[p-di(n-butyl)aminophenyl]-p-phenylenediimmonium, reference compound] |  |  | 
 | 10.8 | 14.3 | 3.5 |  |  |  | CCCCN(CCCC)c1ccc([N+](=C2C=CC(=[N+](c3ccc(N(CCCC)CCCC)cc3)c3ccc(N(CCCC)CCCC)cc3)C=C2)c2ccc(N(CCCC)CCCC)cc2)cc1.F[B-](F)(F)F.F[B-](F)(F)F [Compound No. 156, borofluoride salt of N,N,N′,N′-tetrakis[p-di(n-butyl)aminophenyl]phenylene diimmonium, reference compound] |  |  | 

SMILES | molar absorption coefficient (ε) [3] | b* value, difference [4] | b* value, 14-day after [4] | b* value, initial period [4] | b* value, initial period [5] | b* value, 14-day after [5] | b* value, difference [5] | λmax [1] | thermal decomposition point (the weight decrease starting point) [2] | also measured
CC(C)CCN(CCC(C)C)c1ccc([N+](=C2C=CC(=[N+](c3ccc(N(CCC(C)C)CCC(C)C)cc3)c3ccc(N(CCC(C)C)CCC(C)C)cc3)C=C2)c2ccc(N(CCC(C)C)CCC(C)C)cc2)cc1.O=S(=O)([N-]S(=O)(=O)C(F)(F)F)C(F)(F)F.O=S(=O)([N-]S(=O)(=O)C(F)(F)F)C(F)(F)F [Compound No. 4] | 110,000 | 2.1 | 4.3 | 2.2 | 2.4 | 3.8 | 1.6 | 1,102 nm | around 280 °C | solubility in MEK [6]: 10%; solubility in toluene [6]: 0.1%
N#CCCCCN(CCCCC#N)c1ccc([N+](=C2C=CC(=[N+](c3ccc(N(CCCCC#N)CCCCC#N)cc3)c3ccc(N(CCCCC#N)CCCCC#N)cc3)C=C2)c2ccc(N(CCCCC#N)CCCCC#N)cc2)cc1.O=S(=O)([N-]S(=O)(=O)C(F)(F)F)C(F)(F)F.O=S(=O)([N-]S(=O)(=O)C(F)(F)F)C(F)(F)F [Compound No. 9] | 109,000 | 1.9 | 4.3 | 2.4 |  |  |  | 1,086 nm | around 277 °C | 
CCN(CC)c1ccc([N+](=C2C=CC(=[N+](c3ccc(N(CC)CC)cc3)c3ccc(N(CC)CC)cc3)C=C2)c2ccc(N(CC)CC)cc2)cc1.O=S(=O)([N-]S(=O)(=O)C(F)(F)F)C(F)(F)F.O=S(=O)([N-]S(=O)(=O)C(F)(F)F)C(F)(F)F [Compound No. 12] | 96,000 |  |  |  |  |  |  | 1,084 nm | around 278 °C | 
